In test [1] the target is cap-dependent endonuclease (RNP fraction, PB1-PB2-PA complex) (Influenza A virus, UniProt P15659). The test can be described thus: Measurement of cap-dependant endonuclease (CEN) inhibitory activity. Format: biochemical. As to conditions: RNP from A/WSN/33 virus, room temperature 60 minutes; read-out: CEN_IC50.
The subject of test [2] is influenza virus. The test can be described thus: CPE inhibitory effect confirming assay. Format: cell-based. As to conditions: unidentified influenza virus, 72 h, read-out: CPE_EC50.

For the compound `O=C1c2c(O)c(=O)ccn2N([C@H]2c3ccccc3CSc3ccccc32)[C@@H]2COCCN12` [III-1], the IC50 in test [1] worked out at 10.9 nM. Moreover, the EC50 in test [2] is 2.1 nM. As for `O=C1c2c(O)c(=O)ccn2N([C@H]2c3ccc(F)cc3CSc3ccccc32)[C@@H]2COCCN12` [III-3], in test [1], the IC50 is 2.22 nM. Also, in test [2], the EC50 came out at 3.39 nM. Regarding `O=C1c2c(O)c(=O)ccn2N([C@@H]2c3ccccc3SCc3c(Cl)cccc32)[C@@H]2COCCN12` [III-4], the IC50 in test [1] turned out to be 2.81 nM. Further, the EC50 in test [2] was found to be 2.08 nM. For `O=C1c2c(O)c(=O)ccn2N([C@H]2c3ccccc3CSc3ccccc32)[C@@H]2CSCCN12` [III-5] the same measures were 10.8 nM and 4.28 nM. `O=C1c2c(O)c(=O)ccn2N([C@H]2c3ccccc3CSc3ccccc32)[C@@H]2CC3(CCN12)OCCO3` [III-7]: in test [1], the IC50 was 8.09 nM. Further, in test [2], the EC50 was determined as 11.5 nM. Consider `O=C1c2c(O)c(=O)ccn2N([C@H]2c3ccccc3CSc3ccccc32)[C@@H]2CCOCCN12` [III-8], for which the IC50 in test [1] was determined as 2.81 nM. Further, in test [2], the EC50 was determined as 7.18 nM. For the compound `O=C1c2c(O)c(=O)ccn2N([C@@H]2c3ccccc3SCc3c2ccc(F)c3F)[C@@H]2CSCCN12` [III-9], in test [1], the IC50 was found to be 2.17 nM. Besides, the EC50 in test [2] turned out to be 10.9 nM. Consider `O=C1c2c(O)c(=O)ccn2N([C@@H]2c3ccccc3SCc3cccc(F)c32)[C@@H]2COCCN12` [III-10], for which the IC50 in test [1] was determined as 4.05 nM. In test [2], the EC50 came out at 3.46 nM. In the case of `O=C1c2c(O)c(=O)ccn2N([C@@H]2c3ccccc3SCc3c(F)cc(F)cc32)[C@@H]2COCCN12` [III-11], the IC50 in test [1] was determined as 13.1 nM. In addition, the EC50 in test [2] amounted to 9.98 nM.

`O=C1c2c(O)c(=O)ccn2N([C@H]2c3cc(F)c(F)cc3CSc3ccccc32)[C@@H]2COCCN12` [III-12]: in test [1], the IC50 turned out to be 2.18 nM. In test [2], the EC50 is 3.38 nM. For `O=C1c2c(O)c(=O)ccn2N([C@@H]2c3cccc(F)c3SCc3cccc(F)c32)[C@@H]2COCCN12` [III-13], in that order: 3.94 nM and 4 nM. As to `O=C1c2c(O)c(=O)ccn2N([C@H]2c3cc(F)ccc3CSc3ccccc32)[C@@H]2COCCN12` [III-14], the IC50 in test [1] came to 15 nM. For the same compound, in test [2], the EC50 was determined as 15.7 nM. In the case of `O=C1c2c(O)c(=O)ccn2N([C@H]2c3cc(Cl)ccc3CSc3ccccc32)[C@@H]2COCCN12` [III-15], the IC50 in test [1] amounted to 37.3 nM. In addition, the EC50 in test [2] was 16.9 nM. Regarding `O=C1c2c(O)c(=O)ccn2N([C@@H]2c3cccc(Cl)c3SCc3cccc(F)c32)[C@@H]2COCCN12` [III-16], the IC50 in test [1] was found to be 4.33 nM. The EC50 in test [2] worked out at 10.2 nM. For `O=C1c2c(O)c(=O)ccn2N([C@@H]2c3ccccc3SCc3c2cccc3C(F)(F)F)[C@@H]2COCCN12` [III-17], in that order: 3.89 nM and 8.14 nM. On to `Cc1cccc2c1[C@H](N1[C@@H]3COCCN3C(=O)c3c(O)c(=O)ccn31)c1ccccc1SC2` [III-18], for which, in test [2], the EC50 is 3.28 nM.

As for `O=C1c2c(O)c(=O)ccn2N([C@@H]2c3ccccc3SCc3c(F)cccc32)[C@@H]2COCCN12` [III-19], in test [2], the EC50 was 1.43 nM.

For the compound `O=C1c2c(O)c(=O)ccn2N([C@@H]2c3ccccc3SCc3cccc(Cl)c32)[C@@H]2COCCN12` [III-20], the EC50 in test [2] is 4 nM. Turning to `O=C1c2c(O)c(=O)ccn2N([C@@H]2c3ccccc3SCc3c2ccc(F)c3F)[C@@H]2CC(F)(F)CCN12` [III-21], the IC50 in test [1] stood at 4.06 nM. In addition, the EC50 in test [2] is 2.7 nM.

`C[C@@H]1COC[C@@H]2N1C(=O)c1c(O)c(=O)ccn1N2[C@@H]1c2ccccc2SCc2c1ccc(F)c2F` [III-22]: the IC50 in test [1] was found to be 3.46 nM. For the same compound, in test [2], the EC50 was determined as 3.07 nM. With `O=C1c2c(O)c(=O)ccn2N([C@@H]2c3ccccc3SCc3c2ccc(F)c3F)[C@@H]2CC3(CCOCC3)CCN12` [III-23], in test [1], the IC50 was 1.48 nM. Moreover, the EC50 in test [2] came to 0.86 nM.

Regarding `O=C1c2c(O)c(=O)ccn2N([C@@H]2c3ccccc3SCc3cccc(O)c32)[C@@H]2COCCN12` [III-24], the IC50 in test [1] turned out to be 13.3 nM. Also, in test [2], the EC50 is 24.1 nM.

Take `O=C1c2c(O)c(=O)ccn2N([C@H]2c3ccccc3CSc3ccccc32)[C@@H]2CCCCN12` [III-25]: the IC50 in test [1] was 2.96 nM. Moreover, the EC50 in test [2] worked out at 2.35 nM.

Consider `O=C1c2c(O)c(=O)ccn2N([C@@H]2c3ccccc3SCc3c2ccc(F)c3F)[C@@H]2C[C@@H](C(F)(F)F)CCN12` [III-26], for which the IC50 in test [1] is 1.63 nM. Besides, the EC50 in test [2] stood at 3 nM. As to `O=C1c2c(O)c(=O)ccn2N([C@@H]2c3ccccc3SCc3c2cccc3C(F)(F)F)[C@@H]2CCCCN12` [III-27], the IC50 in test [1] came out at 4.19 nM. In test [2], the EC50 is 3.61 nM. For `C[C@H]1COC[C@@H]2N1C(=O)c1c(O)c(=O)ccn1N2[C@@H]1c2cccc(F)c2SCc2cccc(F)c21` [III-28], in that order: 10.7 nM and 5.67 nM.

For the compound `O=C1c2c(O)c(=O)ccn2N([C@@H]2c3ccccc3SCc3c2ccc(F)c3F)[C@@H]2CC3(CCN12)COC3` [III-29], the IC50 in test [1] is 0.87 nM. The EC50 in test [2] came to 0.66 nM.

With `C[C@H]1COC[C@@H]2N1C(=O)c1c(O)c(=O)ccn1N2[C@H]1c2ccc(F)cc2CSc2ccccc21` [III-30], the EC50 in test [2] stood at 3.01 nM. As for `C[C@H]1COC[C@@H]2N1C(=O)c1c(O)c(=O)ccn1N2[C@@H]1c2ccccc2SCc2cccc(F)c21` [III-31], the IC50 in test [1] came to 18.5 nM. Further, in test [2], the EC50 worked out at 3.17 nM. With `C[C@H]1COC[C@@H]2N1C(=O)c1c(O)c(=O)ccn1N2[C@H]1c2ccccc2CSc2ccccc21` [III-32], the IC50 in test [1] was 27.6 nM. Further, the EC50 in test [2] came out at 7.23 nM. With `CC1(C)CCN2C(=O)c3c(O)c(=O)ccn3N([C@@H]3c4ccccc4SCc4c3ccc(F)c4F)[C@@H]2C1` [III-33], in test [2], the EC50 is 2.36 nM. For `O=C1c2c(O)c(=O)ccn2N([C@@H]2c3ccccc3SCc3c2ccc(F)c3F)[C@@H]2CCC(F)(F)CN12` [III-34], the IC50 in test [1] was determined as 4.69 nM. Besides, the EC50 in test [2] came out at 2.85 nM.

On to `CC1(C)CC[C@@H]2N(C1)C(=O)c1c(O)c(=O)ccn1N2[C@@H]1c2ccccc2SCc2c1ccc(F)c2F` [III-35], for which the IC50 in test [1] amounted to 3.86 nM. Moreover, the EC50 in test [2] is 3 nM. For the compound `O=C1c2c(O)c(=O)ccn2N([C@@H]2c3ccccc3SCc3c2ccc(F)c3F)[C@@H]2CC3(CCN12)CC3` [III-36], in test [2], the EC50 came out at 2.45 nM. Consider `O=C1c2c(O)c(=O)ccn2N([C@@H]2c3ccccc3SCc3c2ccc(F)c3F)[C@@H]2CO[C@H](C(F)(F)F)CN12` [III-37], for which the IC50 in test [1] came out at 4.24 nM. Also, the EC50 in test [2] turned out to be 3.43 nM. With `O=C1c2c(O)c(=O)ccn2N([C@@H]2c3ccccc3SCc3c2ccc(F)c3F)[C@@H]2C[C@H](C(F)(F)F)CCN12` [III-38], the IC50 in test [1] was determined as 8.26 nM. Moreover, in test [2], the EC50 came to 4.04 nM.

Regarding `CO[C@@H]1CCN2C(=O)c3c(O)c(=O)ccn3N([C@@H]3c4ccccc4SCc4c3ccc(F)c4F)[C@@H]2C1` [III-39], the IC50 in test [1] came to 2.75 nM. Moreover, the EC50 in test [2] was 2.81 nM.

In the case of `C[C@H]1CC[C@@H]2N(C1)C(=O)c1c(O)c(=O)ccn1N2[C@@H]1c2ccccc2SCc2c1ccc(F)c2F` [III-40], in test [1], the IC50 was found to be 2.99 nM. The EC50 in test [2] amounted to 2.95 nM.

`C[C@@H]1CCN2C(=O)c3c(O)c(=O)ccn3N([C@@H]3c4ccccc4SCc4c3ccc(F)c4F)[C@@H]2C1` [III-41]: the IC50 in test [1] came out at 2.1 nM. In test [2], the EC50 worked out at 2.17 nM.

For `C[C@@H]1CC[C@@H]2N(C1)C(=O)c1c(O)c(=O)ccn1N2[C@@H]1c2ccccc2SCc2c1ccc(F)c2F` [III-42], the IC50 in test [1] was 3.93 nM. The EC50 in test [2] came to 2.64 nM.

With `O=C1c2c(O)c(=O)ccn2N([C@H]2c3ccc(F)cc3CSc3ccccc32)[C@@H]2C[C@H](C(F)(F)F)CCN12` [III-43], in test [1], the IC50 was 3.9 nM. Besides, the EC50 in test [2] was found to be 3.18 nM.

In the case of `O=C1c2c(O)c(=O)ccn2N([C@@H]2c3ccccc3SCc3cccc(F)c32)[C@@H]2CC(F)(F)CCN12` [III-44], the IC50 in test [1] amounted to 3.81 nM. For the same compound, the EC50 in test [2] turned out to be 3.68 nM.

Consider `CC1(C)CCN2C(=O)c3c(O)c(=O)ccn3N([C@@H]3c4ccccc4SCc4cccc(F)c43)[C@@H]2C1` [III-45], for which the IC50 in test [1] stood at 1.63 nM. Moreover, the EC50 in test [2] stood at 3.07 nM. Take `O=C1c2c(O)c(=O)ccn2N([C@H]2c3ccc(F)cc3CSc3ccccc32)[C@@H]2CC(F)(F)CCN12` [III-46]: in test [1], the IC50 is 2.91 nM. In addition, in test [2], the EC50 came out at 3.18 nM. For `CC1(C)CCN2C(=O)c3c(O)c(=O)ccn3N([C@H]3c4ccc(F)cc4CSc4ccccc43)[C@@H]2C1` [III-47], in that order: 2.25 nM and 2.53 nM. For `O=C1c2c(O)c(=O)ccn2N([C@@H]2c3ccccc3SCc3cccc(F)c32)[C@@H]2CC3(CCN12)CC3` [III-48], in that order: 3.49 nM and 3.57 nM. As to `C[C@@H]1CCN2C(=O)c3c(O)c(=O)ccn3N([C@@H]3c4ccccc4SCc4cccc(F)c43)[C@@H]2C1` [III-49], in test [1], the IC50 is 6.79 nM. Moreover, in test [2], the EC50 was 4.17 nM. `C[C@@H]1CCN2C(=O)c3c(O)c(=O)ccn3N([C@H]3c4ccc(F)cc4CSc4ccccc43)[C@@H]2C1` [III-50]: the IC50 in test [1] was found to be 2.55 nM. Further, the EC50 in test [2] came to 4.36 nM. With `C[C@H]1CN2C(=O)c3c(O)c(=O)ccn3N([C@@H]3c4ccccc4SCc4c3ccc(F)c4F)[C@@H]2CO1` [III-51], the IC50 in test [1] worked out at 2.22 nM. In addition, in test [2], the EC50 was 2.58 nM. Turning to `C[C@H]1CN2C(=O)c3c(O)c(=O)ccn3N([C@H]3c4ccc(F)cc4CSc4ccccc43)[C@@H]2CO1` [III-52], the IC50 in test [1] came to 3.62 nM. For the same compound, in test [2], the EC50 came out at 3.28 nM. `O=C1c2c(O)c(=O)ccn2N([C@@H]2c3ccccc3SCc3cccc(F)c32)[C@@H]2CCCCN12` [III-53]: the IC50 in test [1] came to 2.46 nM. Further, the EC50 in test [2] came out at 3 nM. Consider `O=C1c2c(O)c(=O)ccn2N([C@H]2c3ccc(F)cc3CSc3ccccc32)[C@@H]2CCCCN12` [III-54], for which the EC50 in test [2] was 1.18 nM. On to `O=C1c2c(O)c(=O)ccn2N([C@H]2c3ccc(F)cc3CSc3ccccc32)[C@@H]2CC3(CCN12)CC3` [III-55], for which the IC50 in test [1] was 2.13 nM. The EC50 in test [2] was 3.45 nM.
